Literature values, collected in patent US20260237528A1, “DRUG COMBINATIONS SCREENING” (Hoffmann-La Roche Inc., priority 2023, published 2026).

Test system: tumour growth
Details: tested alone

Row | SMILES | anti-tumour activity
1 | CN(C)CCCN1c2ccccc2Sc2ccc(Cl)cc21 [chlorpromazine] | Neither of these drugs showed any anti-tumour activity when tested alone
2 | N=C(N)c1ccc(OCCCCCOc2ccc(C(=N)N)cc2)cc1 [pentamidine] | Neither of these drugs showed any anti-tumour activity when tested alone
